Test results reported in publication doi:10.1101/2023.05.09.538545v2, “Engineering dynamic gates in binding pocket of penicillin G acylase to selectively degrade bacterial signaling molecules” (biorxiv, 2024).

Target: T1, ecPGA (Escherichia coli penicillin G acylase) (Escherichia coli, UniProt P06875)
T1 construct: gene pac; mature alpha/beta heterodimer cut from one precursor (signal peptide and spacer removed); ecpga gene in pET-26b, E. coli BL21(DE3), purified after Kutzbach and Rauenbusch; His-tagged version made for melting analysis; WT source plasmid pKA18
T1 sequence (P06875 27-235): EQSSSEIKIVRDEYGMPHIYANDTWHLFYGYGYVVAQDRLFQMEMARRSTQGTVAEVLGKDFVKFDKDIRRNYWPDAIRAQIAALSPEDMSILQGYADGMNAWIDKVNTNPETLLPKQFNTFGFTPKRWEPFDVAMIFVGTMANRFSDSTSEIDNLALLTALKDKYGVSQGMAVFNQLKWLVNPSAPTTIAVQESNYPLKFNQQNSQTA
T1 sequence (P06875 290-846): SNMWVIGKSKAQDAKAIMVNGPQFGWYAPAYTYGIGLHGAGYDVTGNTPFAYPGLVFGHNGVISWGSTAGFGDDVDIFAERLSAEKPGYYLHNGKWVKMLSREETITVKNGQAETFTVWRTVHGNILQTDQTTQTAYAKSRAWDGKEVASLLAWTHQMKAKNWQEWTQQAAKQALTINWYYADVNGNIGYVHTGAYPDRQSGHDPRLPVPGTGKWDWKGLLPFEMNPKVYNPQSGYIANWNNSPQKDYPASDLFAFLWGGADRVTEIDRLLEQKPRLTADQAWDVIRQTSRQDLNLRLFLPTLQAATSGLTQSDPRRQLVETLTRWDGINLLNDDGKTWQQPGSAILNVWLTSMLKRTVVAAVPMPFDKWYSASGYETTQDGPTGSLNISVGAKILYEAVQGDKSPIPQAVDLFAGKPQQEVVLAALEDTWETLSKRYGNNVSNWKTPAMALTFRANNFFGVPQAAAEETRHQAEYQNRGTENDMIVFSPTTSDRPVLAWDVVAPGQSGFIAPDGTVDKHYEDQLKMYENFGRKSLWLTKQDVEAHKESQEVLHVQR
Experiment: HPLC of AHL hydrolysis at […] nm, initial rates
Type: biochemical

Question: For `CCCCCCCC(=O)N[C@H]1CCOC1=O` [C08, N-octanoyl-L-homoserine lactone], which Km is on record?
Answer: 700 ± 40 µM
